Data: patent US20240336634A1, “AGONISTS OF TYRO3 AS PROTECTION AGAINST PODOCYTE INJURY IN KIDNEY GLOMERULAR DISEASE” (The Government of the United States of America as …, priority 2021, published 2024)
One block for each compound: values may come before it.

Tests used:
Axl = target: T1, Axl (Homo sapiens, UniProt P30530); experiment: Axl phosphorylation in podocytes, western blot with anti-phospho-TAM receptor antibody; type: cell-based; details: different doses, 30 minutes (FIG. 4A)
T1 construct: endogenous in cells; host or cells: human podocytes
T1 sequence (P30530 26-894): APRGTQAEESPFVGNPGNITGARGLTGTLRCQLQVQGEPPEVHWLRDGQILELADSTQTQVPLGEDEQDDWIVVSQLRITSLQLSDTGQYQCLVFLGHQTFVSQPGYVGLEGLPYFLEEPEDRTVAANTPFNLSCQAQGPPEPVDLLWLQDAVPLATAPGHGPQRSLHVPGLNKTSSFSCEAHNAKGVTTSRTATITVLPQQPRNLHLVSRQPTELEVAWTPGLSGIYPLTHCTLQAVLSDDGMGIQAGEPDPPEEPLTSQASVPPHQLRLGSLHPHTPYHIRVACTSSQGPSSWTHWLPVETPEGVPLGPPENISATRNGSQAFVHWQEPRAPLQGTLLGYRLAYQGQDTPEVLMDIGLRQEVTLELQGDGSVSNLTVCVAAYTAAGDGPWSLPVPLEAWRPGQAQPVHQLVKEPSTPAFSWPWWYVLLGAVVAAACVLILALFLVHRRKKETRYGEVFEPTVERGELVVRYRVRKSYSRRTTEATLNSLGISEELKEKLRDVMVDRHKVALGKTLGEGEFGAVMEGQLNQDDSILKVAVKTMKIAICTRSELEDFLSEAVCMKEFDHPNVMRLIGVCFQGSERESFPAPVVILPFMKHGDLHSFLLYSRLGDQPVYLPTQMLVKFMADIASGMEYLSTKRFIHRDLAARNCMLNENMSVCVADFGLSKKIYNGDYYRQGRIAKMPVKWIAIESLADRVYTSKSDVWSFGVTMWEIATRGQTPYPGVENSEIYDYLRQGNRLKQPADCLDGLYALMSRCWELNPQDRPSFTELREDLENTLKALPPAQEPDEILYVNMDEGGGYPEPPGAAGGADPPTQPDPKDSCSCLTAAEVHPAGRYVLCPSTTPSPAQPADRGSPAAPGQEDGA
Description: (§1) Referring to FIG. 4B, HEK293T cells were used to confirm the overexpression of Tyro3 and Axl (C: control; OV:overexpression). Referring to FIG. 4C, cells from above transfection were stimulated with C-10 at 100 nM for 30 minutes. Western blot analysis was performed for phospho- and total AKT and GAPDH was used as a control of protein loading. The representative blots of three independent experiments are shown.
(§2) Next, their biological activity was screened by testing their effects on TYRO3, and AKT phosphorylation in podocytes. […] To test the specificity, podocytes were treated with different doses of C-10 for 30 minutes, and then western blot analysis was performed with anti-phospho-Tyro3 antibody, which also recognizes phosphorylation of Mer and Axl. Since three TAM receptors have different molecular weights, they can be distinguished in the SDS gel. […] In addition, TYRO3 and Axl were overexpressed in […] (FIG. 4B), and the effects of C-10 in these cells was determined.

[1] = tested on: NF-κB target gene expression (IL-6); experiment: NF-κB target gene expression in TNF-α treated podocytes, q-PCR; type: cell-based; details: TNF-α (10 ng), 2 hours, IL-6 q-PCR
Description: (§3) FIG. 2A-C show representative data illustrating screening of TYRO3 agonists by activation of TYRO3, AKT, and NK-κB target gene expression. Referring to FIG. 2A and FIG. 2B, podocytes were treated with control vehicle (C) or different TYRO3 agonists (compounds 1-10) for 30 minutes. Western blot analysis was performed for phospho- or total Tyro3 (FIG. 2A) and AKT (FIG. 2B). Referring to FIG. 2C, podocytes were treated with vehicle control (C), TNF-α (10 ng) alone (T), or together with different TYRO3 agonists (compounds 1-10) for 2 hours, and then q-PCR analysis was performed for NF-kB target gene expression (IL-6). N=3, *p<0.01 as compared to TNF-α alone.
(§4) FIG. 3A and FIG. 3B show representative data illustrating the time course and dose effects of C-10 on the phosphorylation of TYRO3, AKT, and NK-κB target gene expression. Referring to FIG. 3A, podocytes were treated with C-10 for 30 minutes at different doses (left) or at 100 nM for different time period (right). […]
(§5) Next, their biological activity was screened by testing their effects on TYRO3, and AKT phosphorylation in podocytes. […] In addition, TYRO3 and Axl were overexpressed in podocytes (FIG. 4B), and the effects of C-10 in these cells was determined.

diabetic mice (db/db) = experiment: Albuminuria and glomerular injury in diabetic db/db mice; type: in vivo; details: 2.5 mg/kg from age 10 weeks, 8 weeks
Description: FIG. 6A-C show representative data illustrating that treatment with C-10 improves albuminuria and glomerular injury in diabetic mice. Db/db mice were treated with C-10 at 2.5 mg/kg at age of 10 week, the mice were sacrificed after 8 weeks of treatment.
The effect of C-10 on albuminuria and glomerular injury in diabetic mice was also evaluated. 10 week old db/db mice were treated with C-10 at 2.5 mg/kg. Mice were sacrificed at week 8. As shown in FIGS. 6A-C, administration of C-10 improved both albuminuria and glomerular injury relative to control.

TYRO3 = target: T2, TYRO3 (Homo sapiens, UniProt Q06418); experiment: TYRO3 phosphorylation in podocytes, western blot; type: cell-based; details: for TYRO3 phosphorylation: podocytes, 30 minutes
T2 construct: testing their effects on TYRO3, and AKT phosphorylation in podocytes; endogenous in cells
T2 sequence (Q06418 41-890): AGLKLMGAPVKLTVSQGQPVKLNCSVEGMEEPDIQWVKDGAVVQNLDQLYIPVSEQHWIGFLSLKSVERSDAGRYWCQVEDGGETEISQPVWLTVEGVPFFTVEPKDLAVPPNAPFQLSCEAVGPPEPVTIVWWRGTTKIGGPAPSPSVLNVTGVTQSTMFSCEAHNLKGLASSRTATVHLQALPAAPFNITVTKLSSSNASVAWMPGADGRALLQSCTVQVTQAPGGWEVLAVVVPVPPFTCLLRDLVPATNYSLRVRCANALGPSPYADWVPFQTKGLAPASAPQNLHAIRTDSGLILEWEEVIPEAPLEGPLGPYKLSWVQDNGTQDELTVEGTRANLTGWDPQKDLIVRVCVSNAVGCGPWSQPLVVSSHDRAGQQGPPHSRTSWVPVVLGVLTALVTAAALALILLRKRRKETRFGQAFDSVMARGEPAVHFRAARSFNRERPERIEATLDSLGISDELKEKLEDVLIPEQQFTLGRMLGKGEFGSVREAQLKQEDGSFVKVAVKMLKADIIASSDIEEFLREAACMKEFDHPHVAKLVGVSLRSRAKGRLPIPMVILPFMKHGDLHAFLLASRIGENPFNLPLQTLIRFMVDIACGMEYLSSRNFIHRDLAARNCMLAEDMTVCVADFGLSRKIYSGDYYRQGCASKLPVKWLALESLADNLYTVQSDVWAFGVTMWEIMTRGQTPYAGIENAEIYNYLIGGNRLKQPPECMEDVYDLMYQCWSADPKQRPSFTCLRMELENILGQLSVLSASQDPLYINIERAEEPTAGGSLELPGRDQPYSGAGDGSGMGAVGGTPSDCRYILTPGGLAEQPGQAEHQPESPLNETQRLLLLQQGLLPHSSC
Description: as §3
FIG. 3A and FIG. 3B show representative data illustrating the time course and dose effects of C-10 on the phosphorylation of TYRO3, AKT, and NK-κB target gene expression. Referring to FIG. 3A, podocytes were treated with C-10 for 30 minutes at different doses (left) or at 100 nM for different time period (right). Referring to FIG. 3B, podocytes were treated with vehicle control TNF-α (10 ng) alone or together with different concentrations of C-10 for 2 hours, and then q-PCR analysis was performed for NF-kB target gene expression (IL-6 and CCL2). N=3, *p<0.01 and **p<0.001 as compared to TNF-α alone.
as §1, §2

[2] = tested on: TYRO3 overexpressing cells; experiment: AKT phosphorylation in TYRO3 overexpressing cells; type: cell-based; details: 100 nM, 30 minutes (FIG. 4C)
Description: as §1, §2

[3] = tested on: mice with Adriamycin-induced nephropathy (ADRN); experiment: Adriamycin-induced nephropathy (ADRN) in mice; type: in vivo
Description: FIG. 5A-C show representative data illustrating that C-10 treatment attenuates adriamycin-induced nephropathy (ADRN) in mice. 10-week old male Balb/c mice were injected with adriamycin (8 mg/kg) and treated with C-10 at 20 mg/kg from day 3 post-injection. All mice were sacrificed at day 28 post-injection.
The effect of C-10 was determined in vivo in mice with Adriamycin-induced nephropathy (ADRN). ADRN was induced in the Balb/c mice by injection of adriamycin at a dose of 8 mg/kg at the age of 10 weeks. The mice were fed with either C-10 at a dose of 20 mg/kg body weight or vehicle by daily gavage started on day 3 after they received an injection of Adriamycin, and ending in 4 weeks when the mice were sacrificed.

AKT = AKT phosphorylation in podocytes, western blot; type: cell-based; details: 30 minutes, screening (FIG. 2)
Description: as §3, §4, §5

Mer = target: T3, Mer (Homo sapiens, UniProt Q12866); experiment: Mer phosphorylation in podocytes, western blot with anti-phospho-TAM receptor antibody; type: cell-based; details: different doses, 30 minutes (FIG. 4A)
T3 construct: endogenous in cells; host or cells: human podocytes
T3 sequence (Q12866 21-999): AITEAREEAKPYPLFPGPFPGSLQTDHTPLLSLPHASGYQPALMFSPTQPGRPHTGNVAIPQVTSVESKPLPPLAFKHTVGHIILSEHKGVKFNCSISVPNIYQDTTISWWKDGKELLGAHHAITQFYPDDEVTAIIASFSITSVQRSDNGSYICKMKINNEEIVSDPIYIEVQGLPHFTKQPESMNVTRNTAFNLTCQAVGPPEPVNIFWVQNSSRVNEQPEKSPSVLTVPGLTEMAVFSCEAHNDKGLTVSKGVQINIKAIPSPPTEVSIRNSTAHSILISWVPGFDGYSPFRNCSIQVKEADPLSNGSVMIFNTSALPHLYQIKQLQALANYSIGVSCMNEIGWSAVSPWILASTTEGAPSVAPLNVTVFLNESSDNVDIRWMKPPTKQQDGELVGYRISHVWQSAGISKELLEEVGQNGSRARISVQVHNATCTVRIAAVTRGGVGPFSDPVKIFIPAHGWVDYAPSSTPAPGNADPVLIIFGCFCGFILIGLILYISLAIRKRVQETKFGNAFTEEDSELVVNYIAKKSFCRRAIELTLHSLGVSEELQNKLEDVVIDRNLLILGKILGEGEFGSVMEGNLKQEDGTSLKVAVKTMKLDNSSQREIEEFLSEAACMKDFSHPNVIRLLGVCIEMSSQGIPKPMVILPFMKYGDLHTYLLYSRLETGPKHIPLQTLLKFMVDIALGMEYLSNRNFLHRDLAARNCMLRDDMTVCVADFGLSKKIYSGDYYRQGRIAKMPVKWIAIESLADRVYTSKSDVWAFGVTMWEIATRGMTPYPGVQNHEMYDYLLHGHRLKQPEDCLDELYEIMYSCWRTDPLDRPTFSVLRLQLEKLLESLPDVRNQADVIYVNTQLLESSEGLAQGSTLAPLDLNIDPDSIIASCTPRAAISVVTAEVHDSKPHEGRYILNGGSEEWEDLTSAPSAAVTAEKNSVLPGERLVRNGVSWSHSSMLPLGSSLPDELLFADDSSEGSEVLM
Description: as §1, §2

[4] = ADRN Balb/c mice, 20 mg/kg daily gavage from day 3, 4 weeks

SMILES: Cc1sc(-c2ccc(B(O)O)s2)nc1O [C-10, (5-(4-Hydroxy-5-Methylthiazol-2-yl)Thiophen-2-yl)Boronic Acid]
phosphorylation of Axl (Axl): did not affect | NF-κB target gene expression [1]: suppressed | albuminuria (diabetic mice (db/db)): improved | glomerular injury (diabetic mice (db/db)): improved | specificity as agonist for TYRO3 among TAM receptors (TYRO3; from phosphorylation of Tyro3, Axl and Mer): quite specific agonist for TYRO3 | TYRO3 phosphorylation (TYRO3; screening (FIG. 2A)): induced significantly | TYRO3 phosphorylation (TYRO3; different doses, anti-phospho-Tyro3 antibody (FIG. 4A)): induced significantly | effect as TYRO3 agonist compared between hits (TYRO3; screening in podocytes): appears better than C-8 | AKT phosphorylation in TYRO3 overexpressing cells [2]: induced | toxicity during the treatment period ([3]; ADRN Balb/c mice, 20 mg/kg daily gavage): No obvious toxicity | albuminuria [3, 4]: significantly reduced | glomerular injury [3, 4]: significantly reduced | adriamycin-induced nephropathy (ADRN) ([3]; Balb/c mice, 20 mg/kg from day 3, sacrificed day 28): attenuates | AKT phosphorylation (AKT): induced significantly | phosphorylation of Mer (Mer): slightly reduced

TYRO3 phosphorylation (TYRO3; screening (FIG. 2A)): induced significantly
SMILES: COc1cc(-c2nc(O)c(C)s2)ccc1Br [C-8, 2-(4-Bromo-3-Methoxyphenyl)-5-Methylthiazol-4-ol]
NF-κB target gene expression [1]: suppressed | AKT phosphorylation (AKT): induced significantly
